{
  "source": "patent EP0995441A2",
  "about": "“Combination of compounds for treating erectile dysfunctions” (priority 1998, dated 2000)",
  "key": {"[1]": {"tested_on": "Patienten mit Sildenafilresistenz", "test": "Clinical study: erection response after oral drug combination in patients not responding to sildenafil alone", "assay_type": "in vivo", "experimental": "Überraschenderweise erwies sich in klinischen Studien, daß Patienten mit erektiler Impotenz (ED) nach Therapieversagen unter der Behandlung mit Sildenafil allein (ED-SN negativ nach Sildenafil-Therapie in einer Menge von 100 mg Sildenafil) mit der erfindungsgemäßen Medikamentenkombination erfolgreich therapierbar waren.\nTabelle 1 zeigt die Wirkung einer Medikamentenkombination, bestehend aus Sildenafil und Midodrin der chemischen Strukturformel: [drawing 3] wobei die Sildenafil-Mengen von 10 bis 100 mg und die Midodrin-Mengen von 5 bis 25 mg variiert wurden.\nBei 10 Patienten mit ED-SN im Alter zwischen 45 bis 65 Jahren ohne Nitropräparate und koronare Herzkrankheiten lag beispielsweise die Ansprechrate der Medikamentenkombination, bestehend aus 50 mg Sildenafil und 25 mg Midodrin bei 7 von 10 Patienten, wenn die Medikamentenkombination in Form von Zwei-Kompartment-Dragees gegeben wurde.\nBei Gabe der Medikamentenkombination in einer üblichen Retard-Form gelang es, die Ansprechrate auf 8 von 10 Patienten zu erhöhen. Tabelle 1"}, "[2]": {"tested_on": "Sphincter internus und Sphincter externus", "test": "Endoscopic observation and fibre-optic pressure measurement in the prostatic urethra after injection into the corpora cavernosa", "assay_type": "in vivo, Patienten mit Priapismus", "details": "Vergleichsgruppe with clinically sufficient erection after 100 mg Sildenafil", "text": "Diese pharmakologischen Veränderungen sind ein indirekter Hinweis auf die alterierte Gefäßabflußsituation im Funktionsbereich der angrenzenden Organe an die Corpora cavernosa."}, "[3]": {"details": "Sildenafil Monodosis 100 mg, control of the Retardform group"}},
  "note": "Where “and” joins values, the source holds several entries; their conditions need not be identical. Equal values may be shown once.",
  "data": [
    {"smiles": "CCCc1nn(C)c2c(=O)[nH]c(-c3cc(S(=O)(=O)N4CCN(C)CC4)ccc3OCC)nc12", "note": "[Sildenafil]", "values": [
      {"measurement": "Kontrolle, 1. REAKTION (INITIALPHASE): patients reacting out of 10", "setting": "[1]; Sildenafil Monodosis 10 mg", "result": "0/10"},
      {"measurement": "Kontrolle, 50% REAKTION: patients reacting out of 10", "setting": "[1]; Sildenafil Monodosis 10 mg", "result": "0/10"},
      {"measurement": "Kontrolle, MAXIMALE EREKTION: patients reacting out of 10", "setting": "[1]; Sildenafil Monodosis 10 mg", "result": "0/10"},
      {"measurement": "Kontrolle, 1. REAKTION (INITIALPHASE): patients reacting out of 10", "setting": "[1]; Sildenafil Monodosis 50 mg", "result": "0/10 and 1/10"},
      {"measurement": "Kontrolle, 50% REAKTION: patients reacting out of 10", "setting": "[1]; Sildenafil Monodosis 50 mg", "result": "0/10"},
      {"measurement": "Kontrolle, MAXIMALE EREKTION: patients reacting out of 10", "setting": "[1]; Sildenafil Monodosis 50 mg", "result": "0/10"},
      {"measurement": "Kontrolle, 1. REAKTION (INITIALPHASE): patients reacting out of 10", "setting": "[1]; Sildenafil Monodosis 100 mg", "result": "1/10 and 0/10"},
      {"measurement": "Kontrolle, 50% REAKTION: patients reacting out of 10", "setting": "[1]; Sildenafil Monodosis 100 mg", "result": "1/10 and 0/10"},
      {"measurement": "Kontrolle, MAXIMALE EREKTION: patients reacting out of 10", "setting": "[1]; Sildenafil Monodosis 100 mg", "result": "0/10"},
      {"measurement": "Kontrolle, 50% REAKTION: time", "setting": "[1]; [3]", "result": 105, "unit": "min"},
      {"measurement": "Kontrolle, MAXIMALE EREKTION: time", "setting": "[1]; [3]", "result": 120, "unit": "min"},
      {"measurement": "Druckwerte im Bereich des Sphincter internus sowie des Sphincter externus", "setting": "[2]", "result": "keine vergleichbaren hohen Druckwerte"}
    ]}
  ]
}
